# Experimental data from patent US20170240566A1, “AMINO-SUBSTITUTED ANNULATED PYRIMIDINES AND USE THEREOF” (Bayer Pharma Aktiengesellschaft, priority 2014, published 2017).
# pIC50: −log10 of the molar value. Counter-ions that a name gives are not always drawn.
# Key:
# [1] = target: T1, human phosphodiesterase 5 (PDE 5) (Homo sapiens, UniProt O76074); assay: Inhibition of human phosphodiesterase 5 (PDE 5); assay type: biochemical; settings: PDE 5 preparation from human platelets; in some cases means of individual determinations
# T1 construct: PDE 5 preparations are obtained from human platelets by disruption; from tissue; host or cells: human platelets
# Description: B-3. Inhibition of human phosphodiesterase 5 (PDE 5)
# PDE 5 preparations are obtained from human platelets by disruption (Microfluidizer®, 800 bar, 3 passes), followed by centrifugation (75 000 g, 60 min, 4° C.) and ion exchange chromatography of the supernatant on a Mono Q 10/10 column (linear sodium chloride gradient, elution with a 0.2-0.3M solution of sodium chloride in buffer (20 mM Hepes pH 7.2, 2 mM magnesium chloride). Fractions having PDE 5 activity are combined (PDE 5 preparation) and stored at −80° C.
# To determine their in vitro action on human PDE 5, the test substances are dissolved in 100% DMSO and serially diluted. Typically, dilution series (1:3) from 200 μM to 0.091 μM are prepared (resulting final concentrations in the test: 4 μM to 0.0018 μM). In each case 2 μl of the diluted substance solutions are placed into the wells of microtitre plates (Isoplate-96/200W; Perkin Elmer). Subsequently, 50 μl of a dilution of the above-described PDE 5 preparation are added. The dilution of the PDE 5 preparation is chosen such that during the later incubation less than 70% of the substrate are converted (typical dilution: 1:100; dilution buffer: 50 mM tris/hydrochloric acid pH 7.5, 8.3 mM magnesium chloride, 1.7 mM EDTA, 0.2% BSA). The substrate, [8-^3H] cyclic guanosine-3′,5′-monophosphate (1 μCi/μl; Perkin Elmer), is diluted 1:2000 with assay buffer (50 mM tris/hydrochloric acid pH 7.5, 8.3 mM magnesium chloride, 1.7 mM EDTA) to a concentration of 0.0005 μμCi/μl. By addition of 50 μl (0.025 μCi) of the diluted substrate, the enzyme reaction is finally started. The test mixtures are incubated at room temperature for 60 min and the reaction is stopped by adding 25 μl of a suspension of 18 mg/ml yttrium scintillation proximity beads in water (phosphodiesterase beads for SPA assays, RPNQ 0150, Perkin Elmer). The microtitre plates are sealed with a film and left to stand at room temperature for 60 min. Subsequently, the plates are analysed for 30 s per well in a Microbeta scintillation counter (Perkin Elmer). IC50 values are determined using the graphic plot of the substance concentration against percentage PDE 5 inhibition.
# [2] = test system: recombinant guanylate cyclase reporter cell line; assay: Effect on a recombinant guanylate cyclase reporter cell line; assay type: cell-based; settings: minimum effective concentration; in some cases means of individual determinations; read-out: MEC
# Description: B-2. Effect on a Recombinant Guanylate Cyclase Reporter Cell Line
# The cellular activity of the compounds of the invention is determined using a recombinant guanylate cyclase reporter cell line, as described in F. Wunder et al., Anal. Biochem. 339, 104-112 (2005). Representative values (MEC=minimum effective concentration) for the compounds of the invention are shown in the table below (Table 1; in some cases as means of individual determinations): […]
SMILES,pIC50 [1],minimal effective concentration [2]
"Cc1nc2c(cc1F)c(-c1nc(NCC(N)(CF)CF)c3c(n1)NC(=O)C3(C)C(F)(F)F)nn2Cc1cccc(F)c1F (racemic) [Example 6, rac-4-{[2-Amino-3-fluoro-2-(fluoromethyl)propyl]amino}-2-[1-(2,3-difluorobenzyl)-5-fluoro-6-methyl-1H-pyrazolo[3,4-b]pyridin-3-yl]-5-methyl-5-(trifluoromethyl)-5,7-dihydro-6H-pyrrolo[2,3-d]pyrimidin-6-one]",7.49,0.1 µM
"Cc1nc2c(cc1F)c(-c1nc(NCC(N)(CF)CF)c3c(n1)NC(=O)C3(C)C(F)(F)F)nn2Cc1ncccc1F (racemic) [Example 15, rac-4-{[2-Amino-3-fluoro-2-(fluoromethyl)propyl]amino}-2-{5-fluoro-1-[(3-fluoropyridin-2-yl)methyl]-6-methyl-1H-pyrazolo[3,4-b]pyridin-3-yl}-5-methyl-5-(trifluoromethyl)-5,7-dihydro-6H-pyrrolo[2,3-d]pyrimidin-6-one]",7.00,0.1 µM
"CC1(C(F)(F)F)C(=O)Nc2nc(-c3nn(Cc4ncccc4F)c4ncc(F)cc34)nc(NCC(N)(CF)CF)c21 (racemic) [Example 18, rac-4-{[2-Amino-3-fluoro-2-(fluoromethyl)propyl]amino}-2-{5-fluoro-1-[(3-fluoropyridin-2-yl)methyl]-1H-pyrazolo[3,4-b]pyridin-3-yl}-5-methyl-5-(trifluoromethyl)-5,7-dihydro-6H-pyrrolo[2,3-d]pyrimidin-6-one]",7.00,0.1 µM
"Cc1nc2c(cc1F)c(-c1nc(NCC(N)(CF)CF)c3c(n1)NC(=O)C3(C)C(F)(F)F)nn2Cc1cccc(F)c1F (single isomer, unassigned; ent-4) [Example 7, ent-4-{[2-Amino-3-fluoro-2-(fluoromethyl)propyl]amino}-2-[1-(2,3-difluorobenzyl)-5-fluoro-6-methyl-1H-pyrazolo[3,4-b]pyridin-3-yl]-5-methyl-5-(trifluoromethyl)-5,7-dihydro-6H-pyrrolo[2,3-d]pyrimidin-6-one (Enantiomer A)]",6.92,0.3 µM
"Cc1nc2c(cc1F)c(-c1nc(NCC(N)(CF)CF)c3c(n1)NC(=O)C3(C)C(F)(F)F)nn2Cc1cccc(F)c1F (single isomer, unassigned; ent-4) [Example 8, ent-4-{[2-Amino-3-fluoro-2-(fluoromethyl)propyl]amino}-2-[1-(2,3-difluorobenzyl)-5-fluoro-6-methyl-1H-pyrazolo[3,4-b]pyridin-3-yl]-5-methyl-5-(trifluoromethyl)-5,7-dihydro-6H-pyrrolo[2,3-d]pyrimidin-6-one (Enantiomer B)]",6.92,0.1 µM
"Cc1nc2c(cc1F)c(-c1nc(NCC(N)(CF)CF)c3c(n1)NC(=O)C3(C)C(F)(F)F)nn2Cc1ccccc1F (single isomer, unassigned; ent-4) [Example 10, ent-4-{[2-Amino-3-fluoro-2-(fluoromethyl)propyl]amino}-2-[5-fluoro-1-(2-fluorobenzyl)-6-methyl-1H-pyrazolo[3,4-b]pyridin-3-yl]-5-methyl-5-(trifluoromethyl)-5,7-dihydro-6H-pyrrolo[2,3-d]pyrimidin-6-one (Enantiomer A)]",6.54,0.2 µM
"Cc1nc2c(cc1F)c(-c1nc(NCC(N)(CF)CF)c3c(n1)NC(=O)C3(C)C(F)(F)F)nn2Cc1ccccc1F (single isomer, unassigned; ent-4) [Example 11, ent-4-{[2-Amino-3-fluoro-2-(fluoromethyl)propyl]amino}-2-[5-fluoro-1-(2-fluorobenzyl)-6-methyl-1H-pyrazolo[3,4-b]pyridin-3-yl]-5-methyl-5-(trifluoromethyl)-5,7-dihydro-6H-pyrrolo[2,3-d]pyrimidin-6-one (Enantiomer B)]",6.41,0.1 µM
"Cc1nc2c(cc1F)c(-c1nc(NCC(N)(CF)CF)c3c(n1)NC(=O)C3(C)C(F)(F)F)nn2Cc1c(F)ccc(F)c1F (single isomer, unassigned; ent-4) [Example 13, ent-4-{[2-Amino-3-fluoro-2-(fluoromethyl)propyl]amino}-2-[5-fluoro-6-methyl-1-(2,3,6-trifluorobenzyl)-1H-pyrazolo[3,4-b]pyridin-3-yl]-5-methyl-5-(trifluoromethyl)-5,7-dihydro-6H-pyrrolo[2,3-d]pyrimidin-6-one (Enantiomer A)]",6.52,0.3 µM
"Cc1nc2c(cc1F)c(-c1nc(NCC(N)(CF)CF)c3c(n1)NC(=O)C3(C)C(F)(F)F)nn2Cc1c(F)ccc(F)c1F (single isomer, unassigned; ent-4) [Example 14, ent-4-{[2-Amino-3-fluoro-2-(fluoromethyl)propyl]amino}-2-[5-fluoro-6-methyl-1-(2,3,6-trifluorobenzyl)-1H-pyrazolo[3,4-b]pyridin-3-yl]-5-methyl-5-(trifluoromethyl)-5,7-dihydro-6H-pyrrolo[2,3-d]pyrimidin-6-one (Enantiomer B)]",7.00,0.1 µM
"Cc1nc2c(cc1F)c(-c1nc(NCC(N)(CF)CF)c3c(n1)NC(=O)C3(C)C(F)(F)F)nn2Cc1ncccc1F (single isomer, unassigned; ent-4) [Example 16, ent-4-{[2-Amino-3-fluoro-2-(fluoromethyl)propyl]amino}-2-{5-fluoro-1-[(3-fluoropyridin-2-yl)methyl]-6-methyl-1H-pyrazolo[3,4-b]pyridin-3-yl}-5-methyl-5-(trifluoromethyl)-5,7-dihydro-6H-pyrrolo[2,3-d]pyrimidin-6-one (Enantiomer A)]",7.24,0.07 µM
"Cc1nc2c(cc1F)c(-c1nc(NCC(N)(CF)CF)c3c(n1)NC(=O)C3(C)C(F)(F)F)nn2Cc1ncccc1F (single isomer, unassigned; ent-4) [Example 17, ent-4-{[2-Amino-3-fluoro-2-(fluoromethyl)propyl]amino}-2-{5-fluoro-1-[(3-fluoropyridin-2-yl)methyl]-6-methyl-1H-pyrazolo[3,4-b]pyridin-3-yl}-5-methyl-5-(trifluoromethyl)-5,7-dihydro-6H-pyrrolo[2,3-d]pyrimidin-6-one (Enantiomer B)]",,0.65 µM
"CC1(C(F)(F)F)C(=O)Nc2nc(-c3nn(Cc4ncccc4F)c4ncc(F)cc34)nc(NCC(N)(CF)CF)c21 (single isomer, unassigned; ent-4) [Example 19, ent-4-{[2-Amino-3-fluoro-2-(fluoromethyl)propyl]amino}-2-{5-fluoro-1-[(3-fluoropyridin-2-yl)methyl]-1H-pyrazolo[3,4-b]pyridin-3-yl}-5-methyl-5-(trifluoromethyl)-5,7-dihydro-6H-pyrrolo[2,3-d]pyrimidin-6-one (Enantiomer A)]",7.28,0.07 µM
"CC1(C(F)(F)F)C(=O)Nc2nc(-c3nn(Cc4ncccc4F)c4ncc(F)cc34)nc(NCC(N)(CF)CF)c21 (single isomer, unassigned; ent-4) [Example 20, ent-4-{[2-Amino-3-fluoro-2-(fluoromethyl)propyl]amino}-2-{5-fluoro-1-[(3-fluoropyridin-2-yl)methyl]-1H-pyrazolo[3,4-b]pyridin-3-yl}-5-methyl-5-(trifluoromethyl)-5,7-dihydro-6H-pyrrolo[2,3-d]pyrimidin-6-one (Enantiomer B)]",6.92,0.65 µM
"CC1(C)C(=O)Nc2nc(-c3nn(Cc4ccccc4F)c4cc(Cl)ccc34)nc(NCC(N)(CF)CF)c21 [Example 21, 4-{[2-Amino-3-fluoro-2-(fluoromethyl)propyl]amino}-2-[6-chloro-1-(2-fluorobenzyl)-1H-indazol-3-yl]-5,5-dimethyl-5,7-dihydro-6H-pyrrolo[2,3-d]pyrimidin-6-one trifluoroacetate]",,0.3 µM
